The target of experiment [1] is T1, STAT6 (Homo sapiens (Human), UniProt P42226). Put plainly: STAT6 degrader assay (HiBiT, HeLa LgBiT clone 4.14). The format is cell-based. As to conditions: HeLa LgBiT clone 4.14, 4-24 h; geometric mean; given for compounds with >80% Emax; read-out: STAT6 degradation DC50. Put shortly:
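DC50 (nM) comes from luminescence of non-degraded STAT6 read 0.5 h after Nano-GLO addition, following 4-24 h compound exposure at 37° C. Cells were HeLa clone 4.14 expressing LgBiT with a CRISPR HiBiT tag on endogenous STAT6; 50 μM terfenadine set full degradation.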
Target sequence in this assay (P42226 whole entry): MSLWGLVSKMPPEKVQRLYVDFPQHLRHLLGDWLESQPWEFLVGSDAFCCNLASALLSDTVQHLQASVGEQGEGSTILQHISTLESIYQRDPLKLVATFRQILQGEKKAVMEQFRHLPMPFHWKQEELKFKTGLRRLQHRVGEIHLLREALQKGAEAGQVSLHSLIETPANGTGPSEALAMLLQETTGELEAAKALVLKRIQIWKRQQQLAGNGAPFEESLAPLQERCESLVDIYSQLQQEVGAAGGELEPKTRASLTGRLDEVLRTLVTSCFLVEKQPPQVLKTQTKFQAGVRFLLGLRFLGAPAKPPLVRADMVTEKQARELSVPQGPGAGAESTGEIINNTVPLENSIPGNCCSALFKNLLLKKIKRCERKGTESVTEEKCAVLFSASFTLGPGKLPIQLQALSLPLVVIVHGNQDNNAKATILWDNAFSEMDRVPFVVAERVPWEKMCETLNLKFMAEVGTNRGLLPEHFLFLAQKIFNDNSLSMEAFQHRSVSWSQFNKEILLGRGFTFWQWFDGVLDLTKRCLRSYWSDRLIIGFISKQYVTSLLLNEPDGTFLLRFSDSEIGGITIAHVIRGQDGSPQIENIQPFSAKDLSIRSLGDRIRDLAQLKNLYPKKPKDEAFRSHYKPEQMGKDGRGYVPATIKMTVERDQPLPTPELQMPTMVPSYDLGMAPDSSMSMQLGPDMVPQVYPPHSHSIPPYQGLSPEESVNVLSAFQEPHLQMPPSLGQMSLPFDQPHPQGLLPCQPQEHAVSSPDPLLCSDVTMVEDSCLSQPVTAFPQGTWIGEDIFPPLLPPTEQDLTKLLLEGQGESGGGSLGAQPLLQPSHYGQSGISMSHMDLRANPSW
In general terms: HiBiT is a short tag that completes a luciferase, so light tracks the accessible tagged protein.

For experiment [2], the target named is T1, STAT6. Put plainly: Surface plasmon resonance assay. The format is binding. To be noted: truncated human STAT6 aa122-658, 25° C.; read-out: STAT6 SPR Kd. The procedure:
Surface Plasmon Resonance Assay
SPR was used to confirm and quantify binding of compounds to human STAT6. Biacore instruments from the 8K-series (Cytiva) were used, and measurements were performed at 25° C. Human STAT6 (truncated, aa122-658, with N-terminal His-tag, expressed in insect cells) was immobilized in the active flow cells on a CM5 chip using amine-coupling (default settings) at 10 μg/ml in 10 mM acetate buffer pH 5.5, at a contact time of 120-420 sec. and a flow rate of 10 μl/min. Reference flow cells were deactivated using blank immobilization. PBS-P+(Cytiva) supplemented with 2% DMSO was used as running buffer, and solvent correction was applied. Compounds were tested by multi-cycle kinetics injections using a contact time of 60 sec., dissociation time of up to 300 sec., and a flow rate of 30 μl/min.
Solvent-corrected, reference-subtracted and blank-corrected data was processed and binding isotherms were fitted according to a single report point from each sensorgram (Standard: Late binding (5 sec. before injection end); alternative: Earlier report point according to binding profile). Data fitting was done both with unfixed Rmax and with Rmax fixed to the theoretical value* assuming 1:1 binding to allow processing of data from both weak and strong binders as well as to evaluate binding stoichiometry.
Positive controls were run at the beginning, during, and at the end of the screen to evaluate surface activity. Generally surface activity was only affected to a minor degree, and no corrections were applied. • Equation for calculation of the theoretical Rmax (Theoretical Rmax=(MW Analyte/MW Ligand)×immobilization level).
The sensorgrams for Examples 3e5, 3t4, and 3p1 are shown in FIG. 1 (where RU is plotted vs. time in seconds; dotted lines/points were excluded from the analysis due to effects from non-specific binding)).
Target sequence in this assay (P42226 122-658): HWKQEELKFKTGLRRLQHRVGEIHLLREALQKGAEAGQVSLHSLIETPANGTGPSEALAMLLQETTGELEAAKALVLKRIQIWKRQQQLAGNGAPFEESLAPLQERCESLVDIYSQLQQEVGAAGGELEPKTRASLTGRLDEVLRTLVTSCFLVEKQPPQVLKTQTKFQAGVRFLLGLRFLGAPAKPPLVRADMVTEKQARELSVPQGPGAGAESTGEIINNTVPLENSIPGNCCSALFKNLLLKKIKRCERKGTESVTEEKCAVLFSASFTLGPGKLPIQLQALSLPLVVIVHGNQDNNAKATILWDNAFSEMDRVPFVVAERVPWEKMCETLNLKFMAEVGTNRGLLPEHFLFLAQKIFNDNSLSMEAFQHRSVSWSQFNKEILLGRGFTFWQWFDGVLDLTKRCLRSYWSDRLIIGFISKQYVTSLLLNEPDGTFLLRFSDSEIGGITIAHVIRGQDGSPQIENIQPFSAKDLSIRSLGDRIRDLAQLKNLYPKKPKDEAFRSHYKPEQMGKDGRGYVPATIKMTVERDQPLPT
In general terms: SPR reads the build-up and loss of mass on a sensor chip optically.

A further experiment deals with eotaxin-3 release. Put plainly: Human whole blood eotaxin-3 assay (IL-4 stimulated). The format is cell-based. To be noted: human whole blood, IL-4 0.4 nM, 48 hours; geometric mean; given for compounds with >80% Emax; read-out: Eotaxin-3 EC50. In outline: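 Human whole blood was preincubated with compound for 120 min at 37 °C, then stimulated with recombinant human IL-4 (E. coli) at 0.4 nM final for 48 h. Inhibition of eotaxin-3 release gave EC50 values.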

By DC50 is commonly meant the concentration at which degradation of the target reaches its halfway point. A word on the Kd: it is the equilibrium constant for the complex coming apart. For orientation: EC50 means the concentration at which the effect is half-maximal.

Molecules are shown by their SMILES.

For `Cn1c(CN2CCC(c3ccc(C(=O)N4CCC(CN5CCN(Cc6ccc7c(c6)n(C6CC6)c(=O)n7C6CCC(=O)NC6=O)CC5)CC4)cc3)CC2)cc2c(-c3ccc(N)nc3)ccnc21` (centres unmarked) [Example 3e5, 3-(5-((4-((1-(4-(1-((4-(6-aminopyridin-3-yl)-1-methyl-1H-pyrrolo[2,3-b]pyridin-2-yl)methyl)piperidin-4-yl)benzoyl)piperidin-4-yl)methyl)piperazin-1-yl)methyl)-3-cyclopropyl-2-oxo-2,3-dihydro-1H-benzo[d]imidazol-1-yl)piperidine-2,6-dione], the half-maximal degradation concentration (DC50) at STAT6 [1] was determined as 5.4 nM. Also, on STAT6 [2], the Kd is 104 nM.

`CN(C(=O)c1ccc(C2CCN(Cc3cc4c(-c5ccc(N)nc5)ccnc4n3C)CC2)cc1)c1ccc(C2CCN(Cc3ccc4c(c3)n(C)c(=O)n4C3CCC(=O)NC3=O)CC2)cc1` (centres unmarked) [Example 3p1, 4-(1-((4-(6-aminopyridin-3-yl)-1-methyl-1H-pyrrolo[2,3-b]pyridin-2-yl)methyl)piperidin-4-yl)-N-(4-(1-((1-(2,6-dioxopiperidin-3-yl)-3-methyl-2-oxo-2,3-dihydro-1H-benzo[d]imidazol-5-yl)methyl)-piperidin-4-yl)phenyl)-N-methylbenzamide]: the DC50 on STAT6 [1] was found to be 0.1 nM. Besides, the 50% effective concentration (EC50) in the experiment with eotaxin-3 release came out at 1 nM. In addition, the Kd at STAT6 [2] is 11.4 nM.

Turning to `Cn1c(CN2CCC(c3ccc(-c4nnc5ccc(N6CCC(CN7CCN(Cc8ccc9c(c8)n(C)c(=O)n9C8CCC(=O)NC8=O)CC7)CC6)nn45)cc3)CC2)cc2c(-c3ccc(N)nc3)ccnc21` (centres unmarked) [Example 3t4, 3-(5-((4-((1-(3-(4-(1-((4-(6-aminopyridin-3-yl)-1-methyl-1H-pyrrolo[2,3-b]pyridin-2-yl)methyl)-piperidin-4-yl)phenyl)-[1,2,4]triazolo[4,3-b]pyridazin-6-yl)piperidin-4-yl)methyl)piperazin-1-yl)methyl)-3-methyl-2-oxo-2,3-dihydro-1H-benzo[d]imidazol-1-yl)piperidine-2,6-dione], at STAT6 [1], the DC50 was 0.1 nM. Further, on STAT6 [2], the Kd stood at 37.8 nM.

For `C[C@H]1CN(Cc2ccc3c(c2)n(C)c(=O)n3C2CCC(=O)NC2=O)CCN1CC1CCN(C(=O)c2ccc(C3CCN([C@@H](C)c4cc5c(-c6ccc7[nH]c(=O)n(C)c7c6)ccnc5n4C)CC3)cc2)CC1` (stereo partly drawn) [Example 3e37, 3-(3-methyl-5-(((S)-3-methyl-4-((1-(4-(1-((S)-1-(1-methyl-4-(3-methyl-2-oxo-2,3-dihydro-1H-benzo[d]imidazol-5-yl)-1H-pyrrolo[2,3-b]pyridin-2-yl)ethyl)piperidin-4-yl)benzoyl)piperidin-4-yl)methyl)piperazin-1-yl)methyl)-2-oxo-2,3-dihydro-1H-benzo[d]imidazol-1-yl)piperidine-2,6-dione], the DC50 at STAT6 [1] is 0.2 nM. Also, the EC50 with eotaxin-3 release stood at 1.4 nM.

As to `C[C@H]1CN(Cc2ccc3c(c2)C(C)(C)C(=O)N3[C@H]2CCC(=O)NC2=O)CCN1CC1CCN(C(=O)c2ccc(C3CCN([C@@H](C)c4cc5c(-c6ccc(N)nc6)ccnc5n4C)CC3)cc2)CC1` [Example 3h31, (S)-3-(5-(((S)-4-((1-(4-(1-((S)-1-(4-(6-aminopyridin-3-yl)-1-methyl-1H-pyrrolo[2,3-b]pyridin-2-yl)ethyl)piperidin-4-yl)benzoyl)piperidin-4-yl)methyl)-3-methylpiperazin-1-yl)methyl)-3,3-dimethyl-2-oxoindolin-1-yl)piperidine-2,6-dione], on STAT6 [1], the half-maximal degradation concentration (DC50) was determined as 2.5 nM. Further, in the experiment with eotaxin-3 release, the concentration for a half-maximal effect (EC50) worked out at 8 nM.

(Values after patent publication US20250325677A1, “STAT6 DEGRADERS” (Gilead Sciences, Inc., priority 2024, published 2025).)
